From ChEMBL document CHEMBL1201862, “PubChem BioAssay data set” (2004)
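Growth conditions: 96-well plates. Treatment: test compound, 48 hours, 5 concentrations. Analysis: linear interpolation between bracketing concentrations; unreached endpoints set to highest concentration. Abbreviation: GI50, concentration required for 50% inhibition of growth.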 The source made the active and inactive calls. Rule as the data show it: active = GI50 up to about 1.1 µM and inactive = higher.

How the values were obtained:
Experiment in all cases: growth of human tumour cells (NCI), 48 h
CCRF-CEM = test system: CCRF-CEM
SF-295 = test system: SF-295
RPMI-8226 = test system: RPMI-8226
SW-620 = test system: SW-620
OVCAR-5 = test system: OVCAR-5
SK-MEL-5 = test system: SK-MEL-5
SNB-75 = test system: SNB-75
M14 = test system: M14
HL-60 = test system: HL-60
NCI/ADR-RES = test system: NCI/ADR-RES
MDA-MB-231 = test system: MDA-MB-231
NCI-H522 = test system: NCI-H522
NCI-H23 = test system: NCI-H23
HOP-92 = test system: HOP-92
ACHN = test system: ACHN
Malme-3M = test system: Malme-3M
UACC-257 = test system: UACC-257
OVCAR-3 = test system: OVCAR-3
MDA-N = test system: MDA-N
SR = test system: SR

SMILES	GI50 (CCRF-CEM)	GI50 (SF-295)	GI50 (RPMI-8226)	GI50 (SW-620)	GI50 (OVCAR-5)	GI50 (SK-MEL-5)	GI50 (SNB-75)	GI50 (M14)	GI50 (HL-60)	GI50 (NCI/ADR-RES)	GI50 (MDA-MB-231)	GI50 (NCI-H522)	GI50 (NCI-H23)	GI50 (HOP-92)	GI50 (ACHN)	GI50 (Malme-3M)	GI50 (UACC-257)	GI50 (OVCAR-3)	GI50 (MDA-N)	GI50 (SR)
Cn1ncc2c(Nc3cccc(Cl)c3)nc(Nc3cccc(Cl)c3)nc21	1.15 µM (inactive)	5.47 µM (inactive)	3.61 µM (inactive)	11.2 µM (inactive)	16.1 µM (inactive)	> 35.6 µM (inactive)	7.93 µM (inactive)	6.7 µM (inactive)	7.94 µM (inactive)	9.71 µM (inactive)	16.7 µM (inactive)	8.93 µM (inactive)	16.3 µM (inactive)	10.9 µM (inactive)	10.5 µM (inactive)	17.6 µM (inactive)	8.73 µM (inactive)	18.5 µM (inactive)	–	–
O=C1NC(=S)N/C1=C\c1cccs1	> 100 µM (inactive)	> 100 µM (inactive)	> 100 µM (inactive)	> 100 µM (inactive)	> 100 µM (inactive)	> 100 µM (inactive)	> 100 µM (inactive)	> 100 µM (inactive)	–	> 100 µM (inactive)	> 100 µM (inactive)	> 100 µM (inactive)	> 100 µM (inactive)	–	–	> 100 µM (inactive)	–	> 100 µM (inactive)	> 100 µM (inactive)	–
C1CSCCSCCCSCCSCCCSCCSCCCSCCSC1	> 100 µM (inactive)	> 100 µM (inactive)	86.1 µM (inactive)	> 100 µM (inactive)	> 100 µM (inactive)	> 100 µM (inactive)	–	> 100 µM (inactive)	> 100 µM (inactive)	> 100 µM (inactive)	–	> 100 µM (inactive)	> 100 µM (inactive)	> 100 µM (inactive)	> 100 µM (inactive)	> 100 µM (inactive)	> 100 µM (inactive)	> 100 µM (inactive)	> 100 µM (inactive)	> 100 µM (inactive)
CC1CC/C(=C\c2ccc(F)cc2)C2=C1C(c1ccc(F)cc1)n1c(s/c(=C\c3ccc(Cl)cc3)c1=O)=N2 (stereo not drawn)	> 100 µM (inactive)	–	> 100 µM (inactive)	> 100 µM (inactive)	> 100 µM (inactive)	> 100 µM (inactive)	–	> 100 µM (inactive)	> 100 µM (inactive)	–	> 100 µM (inactive)	–	–	> 100 µM (inactive)	> 100 µM (inactive)	–	> 100 µM (inactive)	–	> 100 µM (inactive)	–
CC(=O)C1(/N=N/c2ccc(S(N)(=O)=O)cc2)CCOC1=O (stereo not drawn)	> 100 µM (inactive)	> 100 µM (inactive)	–	> 100 µM (inactive)	> 100 µM (inactive)	> 100 µM (inactive)	> 100 µM (inactive)	> 100 µM (inactive)	64.6 µM (inactive)	> 100 µM (inactive)	> 100 µM (inactive)	> 100 µM (inactive)	> 100 µM (inactive)	> 100 µM (inactive)	> 100 µM (inactive)	> 100 µM (inactive)	> 100 µM (inactive)	> 100 µM (inactive)	> 100 µM (inactive)	–
COc1ccc(NC(=O)C(C#N)=C(SC)SC)cc1	> 100 µM (inactive)	> 100 µM (inactive)	> 100 µM (inactive)	> 100 µM (inactive)	> 100 µM (inactive)	> 100 µM (inactive)	–	> 100 µM (inactive)	75.3 µM (inactive)	–	> 100 µM (inactive)	57.1 µM (inactive)	> 100 µM (inactive)	15.8 µM (inactive)	> 100 µM (inactive)	> 100 µM (inactive)	> 100 µM (inactive)	> 100 µM (inactive)	> 100 µM (inactive)	> 100 µM (inactive)
CC1=C(C(=O)NC2CCCCC2)CC(C(=O)NC2CCCCC2)=C(C)N1	> 100 µM (inactive)	> 100 µM (inactive)	> 100 µM (inactive)	> 100 µM (inactive)	> 100 µM (inactive)	> 100 µM (inactive)	13.7 µM (inactive)	> 100 µM (inactive)	71.6 µM (inactive)	–	> 100 µM (inactive)	> 100 µM (inactive)	> 100 µM (inactive)	33 µM (inactive)	> 100 µM (inactive)	> 100 µM (inactive)	> 100 µM (inactive)	> 100 µM (inactive)	> 100 µM (inactive)	> 100 µM (inactive)
Oc1ccc2ccccc2c1OCc1nnc(CCCCCCCCc2nnc(COc3c(O)ccc4ccccc34)o2)o1	–	> 100 µM (inactive)	> 100 µM (inactive)	> 100 µM (inactive)	> 100 µM (inactive)	> 100 µM (inactive)	> 100 µM (inactive)	> 100 µM (inactive)	–	> 100 µM (inactive)	34.8 µM (inactive)	> 100 µM (inactive)	> 100 µM (inactive)	> 100 µM (inactive)	> 100 µM (inactive)	> 100 µM (inactive)	> 100 µM (inactive)	–	> 100 µM (inactive)	–
Cc1ccc2c(c1C)C(=O)/C(=C/c1ccccc1C(=O)O)C2	76.9 µM (inactive)	> 100 µM (inactive)	45.3 µM (inactive)	> 100 µM (inactive)	> 100 µM (inactive)	42.3 µM (inactive)	> 100 µM (inactive)	> 100 µM (inactive)	> 100 µM (inactive)	> 100 µM (inactive)	–	> 100 µM (inactive)	> 100 µM (inactive)	> 100 µM (inactive)	> 100 µM (inactive)	> 100 µM (inactive)	> 100 µM (inactive)	> 100 µM (inactive)	> 100 µM (inactive)	> 100 µM (inactive)
CCN1CCCc2cc3c(C(F)(F)F)cc(=O)oc3cc21	–	63.4 µM (inactive)	–	> 100 µM (inactive)	> 100 µM (inactive)	28.6 µM (inactive)	42.5 µM (inactive)	> 100 µM (inactive)	0.0258 µM (active)	–	53.2 µM (inactive)	55.5 µM (inactive)	57.4 µM (inactive)	33.3 µM (inactive)	87.9 µM (inactive)	–	42.1 µM (inactive)	33 µM (inactive)	> 100 µM (inactive)	–
C/C(=N\Nc1nc2ccccc2s1)c1ncccn1	0.1 µM (active)	0.11 µM (active)	0.0775 µM (active)	< 0.0154 µM (active)	0.415 µM (active)	0.03 µM (active)	0.617 µM (active)	< 0.0194 µM (active)	< 0.01 µM (active)	0.0172 µM (active)	< 0.0179 µM (active)	0.0128 µM (active)	0.0614 µM (active)	< 0.0276 µM (active)	< 0.01 µM (active)	0.0505 µM (active)	< 0.0205 µM (active)	< 0.0215 µM (active)	–	–
CN1N=C(c2ccncc2)OC1c1ccc(Cl)cc1Cl (stereo not drawn)	48.6 µM (inactive)	66.2 µM (inactive)	72.8 µM (inactive)	> 100 µM (inactive)	> 100 µM (inactive)	65.6 µM (inactive)	12.6 µM (inactive)	95.3 µM (inactive)	41.2 µM (inactive)	71.8 µM (inactive)	87.9 µM (inactive)	72.6 µM (inactive)	> 100 µM (inactive)	–	74.6 µM (inactive)	–	> 100 µM (inactive)	64.3 µM (inactive)	> 100 µM (inactive)	–
CC#CCCCC1(C)CCNC1=S (stereo not drawn)	> 10 µM (inactive)	> 10 µM (inactive)	–	> 10 µM (inactive)	> 10 µM (inactive)	–	> 10 µM (inactive)	> 10 µM (inactive)	> 10 µM (inactive)	–	–	> 10 µM (inactive)	> 10 µM (inactive)	> 10 µM (inactive)	> 10 µM (inactive)	> 10 µM (inactive)	> 10 µM (inactive)	> 10 µM (inactive)	> 10 µM (inactive)	> 10 µM (inactive)
CC(=O)C(=CNc1c(C)n(C)n(-c2ccccc2)c1=O)C(C)=O	> 100 µM (inactive)	> 100 µM (inactive)	> 100 µM (inactive)	> 100 µM (inactive)	> 100 µM (inactive)	> 100 µM (inactive)	> 100 µM (inactive)	> 100 µM (inactive)	> 100 µM (inactive)	> 100 µM (inactive)	> 100 µM (inactive)	> 100 µM (inactive)	> 100 µM (inactive)	> 100 µM (inactive)	> 100 µM (inactive)	> 100 µM (inactive)	> 100 µM (inactive)	> 100 µM (inactive)	–	> 100 µM (inactive)
CC(C)C1=CC2=C(C(=O)C1=O)C13CCCC(C)(C)C1CC2OC3=O (stereo not drawn)	3.97 µM (inactive)	37 µM (inactive)	8.18 µM (inactive)	14.5 µM (inactive)	25.4 µM (inactive)	25.2 µM (inactive)	25.7 µM (inactive)	24 µM (inactive)	15.1 µM (inactive)	18.9 µM (inactive)	21.9 µM (inactive)	11.3 µM (inactive)	26.8 µM (inactive)	19 µM (inactive)	19.1 µM (inactive)	–	23.9 µM (inactive)	16.7 µM (inactive)	17.9 µM (inactive)	–
CN(C)CCCN1C(=O)N(CCCN(C)C)c2c3cc(O)ccc3nc3c([N+](=O)[O-])ccc1c23	–	34.4 µM (inactive)	32.6 µM (inactive)	16 µM (inactive)	53.1 µM (inactive)	15.5 µM (inactive)	29.3 µM (inactive)	32.7 µM (inactive)	–	92.9 µM (inactive)	11.6 µM (inactive)	6.92 µM (inactive)	13 µM (inactive)	4.82 µM (inactive)	16.6 µM (inactive)	17.8 µM (inactive)	30.8 µM (inactive)	26.1 µM (inactive)	37.3 µM (inactive)	–
